According to the supplement of paper PMC4862054:
“And” between values parts separate entries of the source, which are not always exact repeats. Equal entries are not always repeated.

Assays:
Conditions in all cases: incubation time: 72 h
[1] = system: BT-474; experiment: normalised viability (% of control), CellTiter-Blue; higher = more viable cells (about 100 = DMSO control)
Experimental: (§1)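 DSRT, CellTiter-Blue viability, 72 h incubation. Signal is normalised to DMSO and benzethonium chloride controls. Value is the normalised response at dose 3.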

[2] = system: CAL-120; experiment: as above
Experimental: as §1

[3] = system: CAL-85-1; experiment: as above
Experimental: as §1

[4] = system: HDQ-P1; experiment: as above
Experimental: as §1

[5] = system: Hs578T; experiment: as above
Experimental: as §1

[6] = system: MDA-MB-453; experiment: as above
Experimental: as §1

[7] = system: MDA-MB-468; experiment: as above
Experimental: as §1

[8] = system: SK-BR-3; experiment: as above
Experimental: as §1

[9] = system: BT-474; experiment: drug sensitivity score (DSS), CellTiter-Glo (DSS (AUC-based score)); higher = stronger drug effect (viability inhibition or cytotoxicity); extreme values may be limits of the assay
How it was run: (§2)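 Breast cancer cell lines (20 µl suspension) were seeded into 384-well plates holding compound at 5 concentrations in 10-fold steps over a compound-specific 10,000-fold range, then incubated 72 h. CellTox Green fluorescence (485/520 nm) was read first, then CellTiter-Glo luminescence after 10 min at room temperature. Each plate was normalised to 0.1 % DMSO and a positive kill control. The drug sensitivity score was calculated from the area under the fitted dose-response curve.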

[10] = system: BT-549; experiment: as above
How it was run: as §2

[11] = system: CAL-120; experiment: as above
How it was run: as §2

[12] = system: CAL-148; experiment: as above
How it was run: as §2

[13] = system: CAL-51; experiment: as above
How it was run: as §2

[14] = system: CAL-85-1; experiment: as above
How it was run: as §2

[15] = system: DU-4475; experiment: as above
How it was run: as §2

[16] = system: HCC1143; experiment: as above
How it was run: as §2

[17] = system: HCC1599; experiment: as above
How it was run: as §2

[18] = system: HCC1937; experiment: as above
How it was run: as §2

[19] = system: HDQ-P1; experiment: as above
How it was run: as §2

[20] = system: Hs578T; experiment: as above
How it was run: as §2

[21] = system: MCF-10A; experiment: as above
How it was run: as §2

[22] = system: MDA-MB-231; experiment: as above
How it was run: as §2

[23] = system: MDA-MB-436; experiment: as above
How it was run: as §2

[24] = system: MDA-MB-453; experiment: as above
How it was run: as §2

[25] = system: MDA-MB-468; experiment: as above
How it was run: as §2

[26] = system: MFM-223; experiment: as above
How it was run: as §2

[27] = system: SK-BR-3; experiment: as above
How it was run: as §2

Structure (SMILES) | normalised viability ([1]; 1000 nM) | normalised viability ([2]; 1000 nM) | normalised viability ([3]; 100 nM) | normalised viability ([4]; 100 nM) | normalised viability ([5]; 1000 nM) | normalised viability ([6]; 100 nM) | normalised viability ([7]; 1000 nM) | normalised viability ([8]; 1000 nM) | drug sensitivity score [9] | drug sensitivity score [10] | drug sensitivity score [11] | drug sensitivity score [12] | drug sensitivity score [13] | drug sensitivity score [14] | drug sensitivity score [15] | drug sensitivity score [16] | drug sensitivity score [17] | drug sensitivity score [18] | drug sensitivity score [19] | drug sensitivity score [20] | drug sensitivity score [21] | drug sensitivity score [22] | drug sensitivity score [23] | drug sensitivity score [24] | drug sensitivity score [25] | drug sensitivity score [26] | drug sensitivity score [27] | normalised viability ([1]; 100 nM) | normalised viability ([2]; 100 nM) | normalised viability ([3]; 10 nM) | normalised viability ([4]; 10 nM) | normalised viability ([5]; 100 nM) | normalised viability ([6]; 10 nM) | normalised viability ([7]; 100 nM) | normalised viability ([8]; 100 nM)
CS(=O)(=O)OCCCCOS(C)(=O)=O [Busulfan] | 110% | 113% | 115% | 98.1% | 91.2% | 102% | 114% | 97.5% | 0.000307 | 0 | 0 | 0 | 0 | 0 | 0 | 0 | 0 | 0 | 0 | 0 | 0 | 0 | 0 | 0 | 0 | 0 | 0 |  |  |  |  |  |  |  | 
O=P(O)(NCCCl)NCCCl [Ifosfamide mustard] |  |  |  |  |  |  |  |  |  |  |  |  |  |  |  |  |  |  |  |  |  |  |  |  |  |  |  | 112% | 92.3% | 101% | 122% | 72.2% | 106% | 100% | 86.2%
CS(=O)(=O)CCNCc1ccc(-c2ccc3ncnc(Nc4ccc(OCc5cccc(F)c5)c(Cl)c4)c3c2)o1 [Lapatinib] |  |  |  |  |  |  |  |  | 0 | 0 | 0 | 0 | 0 | 1.7 | 0 | 0 | 0 | 0 | 2.38 | 0 | 4.31 | 0 | 0 | 1.41 | 0 | 0 | 10.8 | 51.4% and 56.8% | 84.9% and 101% | 94.6% and 101% | 102% and 124% |  | 95.8% and 83.7% | 86.8% and 97.8% | 34.6% and 32.9%
COC(=O)C[C@](O)(CCCC(C)(C)O)C(=O)O[C@@H]1C(OC)=C[C@]23CCCN2CCc2cc4c(cc2[C@H]13)OCO4 [Omacetaxine] |  |  |  |  |  |  |  |  | 16.7 | 26.7 | 19 | 19.9 | 27.1 | 29.6 | 30.6 | 22.4 | 26.7 | 21.2 | 23.1 | 26 | 22.1 | 21.2 | 27 | 16.8 | 27.4 | 22.1 | 23.4 |  |  |  |  |  |  |  | 
COc1cc(Nc2ncc(F)c(Nc3ccc4c(n3)NC(=O)C(C)(C)O4)n2)cc(OC)c1OC [R406] |  |  |  |  |  |  |  |  |  |  |  |  |  |  |  |  |  |  |  |  |  |  |  |  |  |  |  | 116% | 90.8% | 90.2% | 107% | 112% | 106% | 92.3% | 95.7%
Cc1cc(C(C)Nc2ccccc2)c2nc(N3CCOCC3)cc(=O)n2c1 (configuration not stated) [TGX-221] |  |  |  |  |  |  |  |  | 3.45 | 2.27 | 0.0447 | 0 | 10.7 | 0 | 0 | 0 | 0 | 0 | 0.256 | 0 | 0 | 0 | 0 | 0 | 4.69 | 0 | 0 |  |  |  |  |  |  |  | 
COc1cc(Nc2ncc(F)c(Nc3ccc4c(n3)NC(=O)C(C)(C)O4)n2)cc(OC)c1OC [Tamatinib] |  |  |  |  |  |  |  |  | 0 | 4.09 | 0 | 0 | 2.11 | 0 | 0 | 0 | 0 | 0 | 0 | 0 | 0 | 0 | 0 | 0 | 0 | 0 | 0 |  |  |  |  |  |  |  | 
c1ccc(C2CN3CCSC3=N2)cc1 (configuration not stated) [Tetramisole] |  |  |  |  |  |  |  |  |  |  |  |  |  |  |  |  |  |  |  |  |  |  |  |  |  |  |  | 109% | 120% | 103% | 122% | 97.5% | 98.1% | 98.8% | 104%
C[C@@H]1CCN(C(=O)CC#N)C[C@@H]1N(C)c1ncnc2[nH]ccc12 [Tofacitinib] |  |  |  |  |  |  |  |  | 0 | 0 | 0 | 0 | 5 | 0 | 0 | 0 | 0 | 0 | 0 | 0 | 0 | 0 | 0 | 0 | 0 | 0 | 0 |  |  |  |  |  |  |  | 
FC(F)c1nc2ccccc2n1-c1nc(N2CCOCC2)nc(N2CCOCC2)n1 [ZSTK474] |  |  |  |  |  |  |  |  | 6.3 | 13.1 | 7.92 | 6.71 | 11.6 | 10.4 | 1.87 | 6.07 | 2.33 | 6.46 | 10.8 | 11.3 | 10.9 | 7.99 | 9.24 | 12.9 | 8.61 | 9.3 | 15.3 |  |  |  |  |  |  |  | 
